Measured values from patent US20020061509A1, “Screening assay for the identification of agents which alter expression of PTH-rP” (Osteo Screen, priority 1996, published 2002).

Legend:
[1] = tested on: RWGT2 cells (human squamous cell carcinoma of the lung); test: Hypercalcemia study: nude mice inoculated with RWGT2 cells; type: in vivo, BALB/c nude mice
Procedure: (§1) Compounds which are identified as regulating PTH-rP production were initially tested for their capacity to inhibit hypercalcemia in vivo by injecting tumor cells into nude mice and treating the mice with the potential inhibitory compounds. Specifically, compounds to be tested were injected into the subcutaneous tissue, intramuscularly, or intravenously into nude mice which were also inoculated with the human cancer cells which produce PTH-rP. The effects on the capacity of the tumor cells to cause hypercalcemia are then assessed over 2-4 weeks.
The tumor, designated RWGT2, is a human squamous cell carcinoma of the lung that was obtained from a hypercalcemic cancer patient (Guise et al, 1993). Metastatic tumor tissue was taken at the time of surgical repair of a pathologic fracture of the femur and implanted into athymic nude mice. The mice developed hypercalcemia, tumors, and increased serum PTH-rP concentrations. Tumor tissue from the mice was used to establish this cell line in culture. The cells produced PTH-rP in culture and reliably produced tumors and hypercalcemia when inoculated intramuscularly into the nude mice.
The RWGT2 cells are grown in culture in T75 flasks in α-minimal essential medium (αMEM, Hazelton Biologics Inc., Lenexa, Kans.) with 10% fetal calf serum and passaged twice a week. The mice are inoculated with RWGT2 cells by subcutaneous inoculation of 1×10^6 cells into the right flank of the upper leg.
All animal studies are conducted in accordance with the NIH Guide for the Care and Use of Laboratory Animals. Male BALB/c nude mice (Harlen), 4-6 weeks of age, are housed in a laminar flow isolator hood with a 12-hour-light/12-hour-dark cycle. Water, supplemented with multivitamins (Lymphomed, Melrose Park, Ill.) and autoclaved mouse chow (Ralston-Purina, St. Louis, Mo.) were provided ad libitum.
Weekly, the mice (each group n=5) are weighed and tumor diameters (long axis and mean axis width) are measured using calipers. Also whole blood samples for ionized calcium (Ca^2+) determination is obtained by retro-orbital puncture under anesthesia and measured using a Ciba Corning 634 ISE Ca^++/pH analyzer. Finally, blood samples for PTH-rP measurements is obtained by retro-orbital puncture and collected on ice, into pediatric vacutainer tubes containing ethylenediamine tetraacetate (EDTA) (Becton Dickinson, Rutherford, N.J.) and aprotinin (Sigma Chemical Company, St. Louis, Mo.), 400KIU/ml and stored at −70° C. Immunoreactive PTH-rP is measured using a 2 site IRMA kit available from Nichols Institute (San Juan Capistrano, Calif.).
For all experiments compound is administered when hypercalcemia is evident (treatment phase) or from the time of inoculation of RWGT2 cells (prevention phase).

[2] = tested on: MDA-MB-231 cells (human breast cell carcinoma); test: Osteolytic bone metastases study: nude mice inoculated with MDA-MB-231 cells into the left ventricle; type: in vivo, BALB/c nude mice; conditions: 50 mg/kg/day; vs vehicle alone
Procedure: as §1, with “inhibit bone metastases” for “inhibit hypercalcemia”, “cause osteolytic bone lesions” for “cause hypercalcemia”
The tumor, named MDA-MB-231, is a human breast cell carcinoma. […]
Weekly, the mice are weighed and whole blood samples for ionized calcium (Ca^2+) determination are obtained by retro-orbital puncture under anesthesia and measured using a Ciba Coming 634 ISE Ca^++/pH analyzer.
The number of osteolytic bone metastases is determined on radiographs as described by Nakai (1992). […] The area of osteolytic bone metastases is calculated using a computerized image analysis system in which examination of osteolytic lesions from radiographs is achieved using a fluorescent light box (Kaiser, Germany) and Macro TV Zoom lens 18-108 mm f2,5 (Olympus, Japan) attached to a color video camera (Model DXC- 1 51 Sony, Japan). […] Quantitation of lesion area is performed using image analysis software (Java, Jandel Video Analysis, Jandel Scientific, Calif.). […]

PTH-rP promoter = test: PTH-rP promoter-firefly luciferase reporter assay in stably transfected MDA-MB-231 cells (Clone 30); type: cell-based, human; conditions: concentration of 3.2 μM
Procedure: To perform studies on the PTH-rP promoter in whole cells, a human breast cancer cell line, MDA-MB-23 1 (kindly provided by C. Kent Osborne, San Antonio Tex.) and a human lung cancer cell line, RWGT2, were employed. Various PTH-rP promoters, described in Wysolmerski et al., 1996, were linked with the reporter gene firefly luciferase and stably transfected into cell lines. Plasmid constructs included pGL3B-PTH-rP1.1 and pGL4B-PTHrP 4.0. RWGT2 cells and MDA-MB-231 cells were cultured in DMEM (Life Technologies, Grand Island, N.Y.) with 10% FCS (Hyclone, Logan, Utah), 0.1% penicillin/streptomycin and 0.1% nonessential amino acids (Gibco) in 37° C. atmosphere of 5% CO2 /air.
Before stable transfection of MDA-MB-231 cells with pGL3B-PTH-rP1.1, the concentration of geneticin (G418) required to kill MDA 231 cells was determined to be 500 μg/ml. […]
Sucloning consisted of diluting the geneticin resistant MDA-MB-2311 cells containing pGL3B-PTHrP1.1 to a concentration of 0.3 cells/100 μl. […] The luciferase activity was assessed by luminometer. […] Routinely, 20 μl of cell lysate was mixed with 100 μl of luciferase assay reagent (270 μM co-enzyme A, 470 μM luciferin and 530 μM ATP) and the luciferase activity was measured for 10 seconds in a Turner TD-20e luminometer. […] The protein concentration was assessed using BioRed reagents. […]

[3] = 50 mg/kg/day, administered from day 0 (prevention phase), vs vehicle alone

C(=NNc1nnn[nH]1)c1ccccc1 [OSW3, 5-benzylidene hydrazino-1,2,34-tetrazole]
PTH-rP concentrations [1, 3]: able to lower | whole blood calcium concentrations [1, 3]: able to lower whole blood calcium concentrations | whole blood calcium concentrations ([1]; 50 mg/kg/day, after hypercalcemia is evident (treatment phase), vs vehicle alone): able to lower whole blood calcium concentrations | lesion area of osteolytic metastases [2]: able to significantly lower | lesion number of osteolytic metastases [2]: able to significantly lower

Nc1nc2nc[nH]c2c(=S)[nH]1 [OSW6, 6-thioguanine]
whole blood calcium concentrations ([1]; 10 mg/kg/day, administered from day 0 (prevention phase), vs vehicle alone): able to significantly lower whole blood calcium concentrations | whole blood calcium concentrations ([1]; 10 mg/kg/day, after hypercalcemia is evident (treatment phase), vs vehicle alone): able to lower whole blood calcium concentrations | size of the tumor ([1]; hypercalcemic mice treated (treatment phase)): reduced

C[n+]1c2cc(N)ccc2cc2ccc(N)cc21.[Cl-] [MS 01500618, acriflavinium hydrochloride]
stimulation of the PTH-rP promoter assay (PTH-rP promoter): about 8 fold
